This note sets out measurements from patent US20040248971A1, “Use of vitamin e succinate and antiandrogen combination” (priority 2001, published 2004).

One assay concerns RXRα. The assay can be described thus: RXR expression in LNCaP cells (Western blotting). In kind it is cell-based, human. Particulars: 10 μM VES. As to the method: (§1) Cells were harvested at different time points. Twenty-five micrograms of RNA and 50 μg of protein collected from the same culture dish were applied for Northern blotting and Western blotting assays, respectively (45). The amount of actin is shown as a control. […] LNCaP cells without treatment were harvested on day 2 and used as a control. Whole-cell lysates were subjected to Western blotting assay using primary antibodies for AR, VDR, PPAR, or RXR.
(§2) Total protein lysate from LNCaP cells was prepared as previously described (Yeh, PNAS). After separation of 50 μg protein by SDS-PAGE gel, proteins were transferred by electrophoresis to Immobilon-P membrane (Millipore Corp., Bedford, Mass.) and incubated in PBS with 0.1% Tween-20 and 10% FCS for 2 h. Primary antibodies specific for human AR, PSA, and β-actin were diluted in PBS with 0.1% Tween-20 (PBST) as described in manual and incubated at room temperature for 2 h. Membranes were washed in PBST (three times, 10 min each time) and incubated with AP-conjugated secondary antibody which was diluted as described in manual in PBST and incubated for 2 h in room temperature, washed in PBST (three times, 10 min each time). The proteins were detected by AP western blotting reagents.
Background: In western blotting, separated proteins are transferred to a membrane and probed.

A further assay relates to AR. The assay can be described thus: AR expression in LNCaP cells (Western and Northern blotting). In kind it is cell-based, human. The protocol: Cells were harvested at different time points. Twenty-five micrograms of RNA and 50 μg of protein collected from the same culture dish were applied for Northern blotting and Western blotting assays, respectively (45). The amount of actin is shown as a control. […] LNCaP cells without treatment were harvested on day 2 and used as a control. Whole-cell lysates were subjected to Western blotting assay using primary antibodies for AR, VDR, PPAR, or RXR. […] Protein harvested from cells without treatment on the first day (day 0) was used as a control. Fifty micrograms of whole-cell lysate was subjected to Western blotting assay. […] LNCaP cells were cultured in RPMI medium with 8% FBS, and treated with […] of the indicated reagent. Proteins harvested from cells without treatment on day 2 were used as a control. 60 micrograms of whole cell lysate was subjected to Western blotting assay. Total protein lysate from LNCaP cells was prepared as previously described (Yeh, PNAS). […] Membranes were washed in PBST (three times, 10 min each time) and incubated with AP-conjugated secondary antibody which was diluted as described in manual in PBST and incubated for 2 h in room temperature, washed in PBST (three times, 10 min each time). The proteins were detected by AP western blotting reagents. […] Cells were harvest after 1, 2, and 3 days treatment. Total RNA was extracted using Trizol, according to manufacturer's directions (GIBCO). Total RNA (20 μg) was electrophoresed though formaldehyde-agarose gels and transferred to Hybond-N+ membrane (Amersham Pharmacia Biotech) according the company's protocol (17). For Northern blots, the fragments of the human PSA, AR, and β-actin cDNA were labeled with [^32P]-dCTP using the random primed DNA labeling kit from Amersham Pharmacia Biotech. Membranes were prehybridized, hybridized, and washed using Rapid-hyb system from Amersham Pharmacia Biotech, according to the manufacturer's user manual. The mRNA was detected using phosphorimager screen system (Molecular Dynamics).

The test system of the next assay is PPARα. The assay can be described thus: PPAR expression in LNCaP cells (Western blotting). In kind it is cell-based, human. As to the method: as §1, §2
The subject of the next assay is PSA6.0-Luc. The assay is described as follows: PSA promoter luciferase reporter (PSA6.0-Luc) in LNCaP cells. In kind it is cell-based, human. Particulars: 5 nM DHT, 10 μM VES or Suc. As to the method: Cells without treatment were harvested on day 2 and used as a control. Western blotting was used to detect the expression of PSA protein. Actin served as an internal control. […] Cells were harvested on days 1, 2, and 3 for Northern blotting analysis. β-Actin served as an internal control. […] The transfections were performed at least three times and presented as an average±SD. […] LNCaP cells without any treatment harvested on the first day (day 0) is used as a control. Western blotting was applied to detect the expression of PSA protein level. […] Cells were harvested on day 1, 2, and 3 for Northern blotting analyses. (G). […] The transfections were performed three times and presented as an average: bar-denotes standard deviation.
For orientation: A reporter such as luciferase makes a cellular process visible.

The subject of a further assay is LNCaP cells. The assay can be described thus: MTT assay / cell counting, LNCaP cell growth. The class given is cell-based, human. The protocol: Cells were harvested at the time indicated. […] Cells were harvested at the time indicated. […] Cell growth was determined by the MTT assay. The control group was cultured in 0.1% (vol/vol) ethanol and was set at 100%.
All the cell growth was determined by cell counting and MTT assay. Control group contained 0.1% (v/v) ethanol and was set at 100%.
LNCaP cells were cultured in RPMI medium with 8% FBS, and treated with 10^−5M of the indicated reagent Cells were harvested at the time indicated in the figure. All the cell growth was determined by cell counting and MTT assay. Control group contained 0.1% (v/v) ethanol and was set at 100%.
The human prostate cancer cell line LNCaP was obtained from the American Type Culture collection (Rockville, Md.). Fibroblast cell was primarily cultured from normal prostate tissue. LNCaP cells were propagated in 12-well, 60 mm or 100 mm culture dishes at the desired density in RPMI 1640 medium (Gibco, Rockville, Md.) supplemented with 8% fetal bovine serum (FBS) (Gibco, Rockville, Md.) at 37° C. and 5% CO2 until reaching 60%-80% confluence or were grown in phenol red-free RPMI medium 1640 with 8% fetal bovine serum (FBS). The fibroblast cells were maintained in DMEM (Gibco, Rockville, Md.) with 10% FBS. […] During the treatment, the medium was changed every 4 days and fresh compounds were added every 2 days.
The MTT assay is a quantitative colorimetric assay for mammalian cell survival and proliferation (13, 16). The 5×10^4 LNCaP cells were seeded in 12-well plates. After 36-48 h, the medium was changed to phenol red free RPMI1640 with 8 % FBS or CS-FBS for another 2, 4, and 6 days, with different compound treatment with or without ligand. At the end of each time period treatment, 200 μl of MTT (5 mg/ml; Sigma) was added into the each well with 1 ml of medium for 3 h at 37° C. After incubation, 2 ml of 0.04 M HCl in isopropyl alcohol was added into each well. After 30-min shaking at room temperature and several pippettings, the absorbency was read at a test wavelength of 595 nm. The 2×10^5 fibroblast cells were seeded in each well of 6-well dishes. […] For cell counting, cells were trypsinized, neutralized by medium, and counted on hemocytometers. Fibroblast cells were seeded at 2×10^5 per well in 6-well plates, and cell growth assays were conducted by using the same MTT assay used for LNCaP cells.

For another assay, the system named is SP1. The assay is described as follows: GAL4-SP1 transactivation (pG5-Luc) in COS-1 cells. In kind it is cell-based. Particulars: 10 μM VES.

Entries after “also recorded” stand apart in the source; their conditions may differ.

In the case of `Cc1c(C)c2c(c(C)c1OC(=O)CCC(=O)O)CCC(C)(CCCC(C)CCCC(C)CCCC(C)C)O2` (stereo not drawn) [VES, RRR-α-tocopheryl succinate], the RXRα expression result in the assay with RXRα is “little effect”. Besides, in the assay with AR (8% FBS, 10 μM VES, Northern and Western blotting), the “AR mRNA and protein expression” value is “inhibits”. Moreover, in the assay on AR (8% FBS, Western blotting (FIG. 9)), the AR expression result is “most effective isoform”. Also, the “AR expression at the protein level” value with AR (Western blotting, 10 μM VES, Suc or SM, 10 nM Vit D) is listed as “could suppress”. In the assay on PPARα (10 uM VES), the PPARr expression entry is recorded as “little effect”. Besides, in the assay with PPARα (10 μM VES), the PPARα expression result is listed as “little effect”. Also, the “DHT induced PSA6.0-Luc activity” value in the assay with PSA6.0-Luc was “repressed”. Moreover, the “DHT-mediated LNCaP cell growth” value in the assay on LNCaP cells (8% CS-FBS with 5 nM DHT, HF 5 μM, VES 10 μM, MTT) is recorded as “effectively represses”. Moreover, the LNCaP cell growth entry in the assay with LNCaP cells (8% FBS without DHT, HF 5 μM, VES 10 μM, MTT) is given as “inhibits; also recorded: differentially inhibit”; with LNCaP cells (RPMI 8% FBS, 10^−5M reagent, cell counting and MTT (FIGS. 8 and 10)) it was “can inhibit; also recorded: most effective compound; also recorded: most effective isoform”. Moreover, the GAL4-SP1 transcription activity result in the assay on SP1 was “did not significantly inhibit”.
